In patent US9688653B2, “Ethoxyphenyl thienyl compounds and methods for the treatment of bacterial infections” (Duke University, priority 2013, dated 2017):

Columns and labels:
[1] = test system: E. coli K1 strain UTI89; assay: microbe, parasite or virus in culture; details: read-out: K1 phage IC50; first round of synthetic analogues, n = 3
Excerpt: The ability of the […] to bind to bacterial capsule, infect, and lyse E. coli UT189 was used as the primary assay to identify the effects of screened compounds on bacterial capsule formation. The phenotypic end-point assay measured the fluorescence generated by cellular processing of Alamar Blue as a direct indicator of cell viability. A total of […] compounds were screened using the primary assay. […] Hits were further evaluated using […] secondary assays for alternative measurement of compound-induced reduction in bacterial capsule formation (secondary assays 1 and 2) and specificity (secondary assays 3 and 4). Confirmed actives with an SI>5 were further investigated and subjected to chemical optimization, followed by secondary assay evaluation. Secondary assays more closely characterized the ability of the compounds to reduce bacterial capsule formation and can be used to examine the mechanism of action of the compounds. The combination of primary assay (to measure capsule reduction), counter assay (for general eukaryotic cell toxicity) and secondary assay (to measure reduction in capsule formation and specificity) were combined to allow a determination of probe efficacy, selectivity, and specificity.
A. Primary Assay: Screening for Inhibitors of Bacterial Capsule Biogenesis.
Primary assay: An end-point assay to measure the amount of K1 phage-induced bacterial cell lysis was employed to determine the compound effect on capsule biogenesis. K1 bacteriophage specifically binds the bacterial capsule during the initial stages of infection. Bacteria without capsule cannot be infected and lysed by the bacteriophage. […] A total of 338,740 compounds were screened at 100 μM in the primary screen Inhibition of phage lysis was calculated relative to the mean of the bacterial (positive) control on each microtiter plate. […] For calculation of S/B/Z value, and CV, the following formulae (in which SD stands for standard deviation) were used: S/B=mean signal/mean background; Z=1-3SD of sample+3SD of control mean of sample−mean of control; % CV=(SD mean signal/mean signal)×100.
IC50 values were calculated using a 4 parameter Levenburg-Marquardt algorithm, with the maximum and minimum locked at 0 and 100 respectively.
Primary assay: The primary assay was conducted in the 1,536 well plate format. Bacterial cultures of E. coli K1 strain UTI89 (cystitis isolate) and isogenic capsule mutant strains (as controls for phage infection) were grown and prepared at the screening center immediately prior to use. Overnight starting cultures of UTI89 were grown at 37° C., and inoculated into 1 liter of LB (starting OD600˜0.03), which was sufficient for screening 40 plates (including ˜10% waste) and ˜40,000 compounds as single points.
Control wells contained UTI89 (wt K1) with 0.5% DMSO as a simulated positive control; UTI89 with 0.5% DMSO and tetracycline for a negative growth control; and media plus vehicle control. 50 mL of LB Broth was inoculated with stock 150 μL E. coli UT189 and grown overnight at 37° C. The next day, cultures were diluted 1:75 in 1 L of LB Broth containing 0.5% DMSO. 3 μL of this culture was added to each plate well, and plates were incubated, inverted, at 37° C. for 2 hr. The K1F bacteriophage stock was diluted 1:8 in LB Broth containing 0.5% DMSO, and 1.5 μL of diluted phage (or media only) was added to the pre-plated test compound wells and appropriate control wells. The plates were centrifuged briefly, and then were incubated, inverted, at 37° C. for an additional 2 hr. Afterward, Alamar Blue reagent (Invitrogen, #DAL1100) was diluted 1:2 with LB broth and 1 μL was added to each plate well.

[2] = test system: Bladder carcinoma 5637 cells; assay: Cytotoxicity counterscreen, CellTiter Glo, 72 hr; type: cell-based, human
Protocol: B. Counterscreen: Cytotoxicity Screening for Potential Inhibitors of Bacterial Capsule Biogenesis.
Purpose: This cell-based assay measures the cytotoxicity of compounds in bladder carcinoma 5637 cells using luminescent cell viability assay readout.
Cytotoxicity assay: The cytotoxicity assay was performed as described in Section 6: Appendix. Hit cytotoxicity and the 50% toxic concentration (CC50) was determined and compared to the IC50 to calculate the selectivity index.
Assay Description: Cytotoxicity: Dose response testing (dose range=300-0.58 μM) established the hit cytotoxicity data. Compounds were plated in 384-well microplates in a stacked dose response format using the same doses used in the efficacy dose response. Bladder carcinoma 5637 cells were added to the compounds, and 72 hr later cell viability was measured using CellTiter Glo (38). Hit cytotoxicity and the 50% toxic concentration (TC50) was determined and compared to the IC50 to calculate the therapeutic index. Test compounds are serially diluted in a plate to plate matrix or stacked plate matrix. All 320 compounds in a source plate are diluted together resulting in a 10 point dose response dilution series. It is visualized as a serial dilution series proceeding vertically through a stack of plates with the high dose plate on top and the low dose plate on the bottom.
Control Drug: Hyamine was used as a positive cytotoxic control. All wells contained 0.5% DMSO.
Preparation of Bladder carcinoma 5637 cells: Cells are harvested and resuspended to 80,000 cells per ml in Complete DMEM/F12®.
Endpoint Read: Following the three day incubation period, the assay plates were equilibrated to room temperature for 30 min and an equal volume (30 μL) of Cell Titer-Glo® reagent (Promega Inc.) is added to each well using a WellMate™ (Matrix, Hudson, N.H.) and plates are incubated for an additional 10 min at room temperature. At the end of the incubation, luminescence is measured using a Perkin Elmer Envision™ multi-label reader (PerkinElmer, Wellesley, Mass.) with an integration time of 0.1 s.
Cytotoxicity. Testing was performed essentially as previously described. Concentration-response testing was performed over a range 0.58-300 μM in a […] well plate format. Bladder carcinoma 5637 cells (ATCC HTB-9) were added to the compounds, and 72 hrs later cell viability was measured using CellTiter Glo (Promega). The 50% toxic concentration (TC50) was determined and compared to the IC50 to calculate the therapeutic index. Hyamine was used as a positive cytotoxic control. All wells contained 0.5% DMSO.

[3] = test system: E. coli K1 strain UTI89; assay: Secondary assay 2: T7 phage-mediated lysis assay; type: cell-based, Escherichia coli; details: first round of synthetic analogues, n = 2; read-out: T7 phage IC50
Excerpt: D. Secondary Assay 2: Screening for Inhibitors of Bacterial Capsule Biogenesis—T7 Lysis Inhibition
Purpose: This secondary assay measures the compound mechanistic specificity for inhibition of bacterial capsule formation and excludes inhibitors of phage replication using a different bacteriophage (T7). In this assay, an increase in phage-induced lysis correlates to a decrease in capsule formation.
Purpose: This secondary assay measures the compound mechanistic specificity for inhibition of bacterial capsule formation using a different bacterial phage (T7). In this assay, an increase in phage-induced lysis correlates to a decrease in capsule formation.
Assay Description: T7 phage-mediated lysis assay: This assay determined if the mechanism of action of the compound is inhibition of phage infectivity or replication. The T7 phage has a nearly identical genome to K1F, without encoding an endosialidase. Its cycle of replication is similar to that of K1F as well. However, T7 entry into E. coli is inhibited by K capsules. This secondary assay was conducted in the 96 well plate format. […] Compounds were added in quadruplicate to plates in a concentration dependent manner in the range of 100-0.39 μM, followed by addition of 100 μL of bacterial culture. 1% DMSO (final well concentration) was included. The plates were tape sealed and shaken vigorously for 1.5 hr. An initial OD600 reading was measured to identify compounds that cause growth retardation or bacterial killing in the absence of phage. Next, T7 phage (5 μL) was added to all of the test wells. The plates were resealed and shaken vigorously at 37° C., and measurements of OD600 for phage-mediated lysis were taken after 3 hr. True inhibitors of capsule yielded bacteria that were susceptible to T7 phage and lysed within 2 hr of the addition of phage. […] The positive control drug C7 (100 μM final well concentration) was used in this screen.
T7 phage counter assay. This secondary assay was performed as previously described and was used to distinguish compounds with phage inhibitory effects from true polysaccharide capsule inhibitors. […] Thus, the presence of a capsule inhibits T7-mediated lysis. In this assay, an increase in phage-induced lysis correlates to a decrease in capsule formation. True inhibitors of capsule yielded bacteria that were susceptible to T7 phage and lysed within 2 hr of the addition of phage. […] The positive control molecule C7 (100 μM final well concentration) was used in this screen.

Structure (SMILES) | IC50 [1] | IC50 [2] | IC50 [3]
O=C(Nc1cc(-c2ccc(C(F)(F)F)cc2)sc1C(=O)O)c1cc2ccccc2o1 [compound 53470417] | > 100 µM | 72.1 µM | 7.17 µM
O=C(Nc1cc(-c2ccc(C(F)(F)F)cc2)sc1C(=O)O)c1cccc(F)c1 [compound 53470418] | > 100 µM | 35.1 µM | 12.8 µM
CC(C)c1ccc(-c2cc(NC(=O)c3ccc(Br)o3)c(C(=O)O)s2)cc1 [compound 53470420] | 3.08 µM | 50.4 µM | 1.25 µM
Cc1ccc(-c2cc(NC(=O)c3c(F)cccc3F)c(C(=O)O)s2)cc1 [compound 53470422] | 40.3 µM | 57.3 µM | 2.43 µM
Cc1ccc(-c2cc(NC(=O)c3ccc(Br)o3)c(C(=O)O)s2)cc1 [compound 53470423] | 15.7 µM | 50.7 µM | 1.01 µM
CC(C)(C)c1ccc(-c2cc(NC(=O)c3cc4ccccc4o3)c(C(=O)O)s2)cc1 [compound 53470424] | > 100 µM | 34.5 µM | 2.83 µM
CCOc1ccc(-c2cc(NC(=O)c3cc4ccccc4o3)c(C(=O)O)s2)cc1 [compound 53470427] | > 100 µM | 193 µM | 2.75 µM
O=C(Nc1cc(-c2ccc(C(F)(F)F)cc2)sc1C(=O)O)c1ccc(Br)s1 [compound 53470428] | > 50 µM | 38.5 µM | 14.1 µM
Cc1ccc(-c2cc(NC(=O)c3ccc(Br)s3)c(C(=O)O)s2)cc1 [compound 53470429] | > 50 µM | 64 µM | 10.7 µM
COc1ccc(-c2cc(NC(=O)c3c(F)cccc3F)c(C(=O)O)s2)cc1 [compound 53470430] | > 100 µM | 239 µM | 2.65 µM
CC(C)c1ccc(-c2cc(NC(=O)c3ccc(Br)s3)c(C(=O)O)s2)cc1 [compound 53470432] | > 100 µM | 33.1 µM | 2.75 µM
CC(C)(C)c1ccc(-c2cc(NC(=O)c3c(F)cccc3F)c(C(=O)O)s2)cc1 [compound 53470433] | 11.5 µM | 35.1 µM | 1.64 µM
CC(C)c1ccc(-c2cc(NC(=O)c3cc4ccccc4o3)c(C(=O)O)s2)cc1 [compound 53470434] | 42.9 µM | 47.2 µM | 2.71 µM
CC(C)(C)c1ccc(-c2cc(NC(=O)c3cccc(F)c3)c(C(=O)O)s2)cc1 [compound 53470435] | 19.9 µM | 21.1 µM | 2.7 µM
Cc1ccc(-c2cc(NC(=O)c3cc4ccccc4o3)c(C(=O)O)s2)cc1 [compound 53470436] | > 100 µM | 94.6 µM | 20 µM
CC(C)c1ccc(-c2cc(NC(=O)c3c(F)cccc3F)c(C(=O)O)s2)cc1 [compound 53470439] | 7.09 µM | 32.4 µM | 1.27 µM
O=C(O)c1sc(-c2ccc(C(F)(F)F)cc2)cc1NC(=O)c1c(F)cccc1F [compound 53470440] | 23.7 µM | 44.8 µM | 3.8 µM
Cc1ccc(-c2cc(NC(=O)c3cccc(F)c3)c(C(=O)O)s2)cc1 [compound 53470441] | 53.7 µM | 43.9 µM | 7.21 µM
COc1ccc(-c2cc(NC(=O)c3cc4ccccc4o3)c(C(=O)O)s2)cc1 [compound 53470443] | > 100 µM | 44.8 µM | 8.36 µM
CC(C)c1ccc(-c2cc(NC(=O)c3cccc(F)c3)c(C(=O)O)s2)cc1 [compound 53470444] | 24.8 µM | 37.6 µM | 2.81 µM
COc1ccc(-c2cc(NC(=O)c3cccc(F)c3)c(C(=O)O)s2)cc1 [compound 53470445] | > 100 µM | 44.8 µM | 8.36 µM
COc1ccc(-c2cc(NC(=O)c3ccc(Br)o3)c(C(=O)O)s2)cc1 [compound 53470446] | 11.1 µM | 50.5 µM | 1.24 µM
O=C(O)c1sc(-c2ccc(OC(F)(F)F)cc2)cc1NC(=O)c1c(F)cccc1F [compound 53495055] | 13 µM | 51 µM | 1.35 µM
O=C(Nc1cc(-c2ccc(OC(F)(F)F)cc2)sc1C(=O)O)c1cccc(F)c1 [compound 53495056] | > 100 µM | 52.1 µM | > 5 µM
O=C(Nc1cc(-c2ccc(OC(F)(F)F)cc2)sc1C(=O)O)c1ccc(Br)o1 [compound 53495057] | 6.39 µM | 33.6 µM | 1.17 µM
O=C(Nc1cc(-c2ccc(OC(F)(F)F)cc2)sc1C(=O)O)c1cc2ccccc2o1 [compound 53495058] | > 100 µM | 40.6 µM | 3.83 µM
